# In ChEMBL document CHEMBL4825690, “Synthesis and biological evaluation of chalcone-polyamine conjugates as novel vectorized agents in colorectal and prostate cancer chemotherapy” (Eur J Med Chem, 2021):
# pIC50: −log10 of the molar value. Active and inactive are the calls of the source. The calls are words filed in the database; no cut-off is given here.
# How the values were obtained:
# PC-3 [1] = assay: Induction of cell cycle arrest in human PC-3 cells assessed as decrease in Cdc2 expression by Western blot analysis; format: functional, cell-based
# HCT-116 [2] = assay: Induction of cell cycle arrest in human HCT-116 cells assessed as accumulation at G1 phase at IC50 incubated for 48 hrs by RNaeA/propidium iodide based flow cytometry analysis (reference value: 51.56 %); format: functional
# PC-3 [3] = assay: Induction of cell cycle arrest in human PC3 cells assessed as accumulation at sub-G1 phase at IC50 incubated for 48 hrs by RNaeA/propidium iodide based flow cytometry analysis (reference value: 0 %); format: functional
# HT-29 [4] = assay: Induction of cell cycle arrest at G1 phase in human HT-29 cells assessed as reduction in Cyclin E2 expression by Western blot analysis; format: functional, cell-based
# DU-145 [5] = assay: Induction of apoptosis in human DU-145 cells assessed as early apoptotic cells incubated for 48 hrs by annexin-V/FITC and propidium iodide staining based flow cytometry analysis (reference value: 3.27 %); format: functional
# Tubulin (Homo sapiens) = Tubulin (Homo sapiens) (UniProt P68371+Q9H4B7+P0DPH7+P68366+Q13509+Q71U36+P04350+Q3ZCM7+P07437+P68363+Q9BQE3+Q6PEY2+Q13885+Q9BVA1+Q9BUF5); assay: Inhibition of tubulin polymerization in human HeLa cells measured after 2 hrs by fluorescent immunostaining method; format: cell-based
# HT-29 [6] = assay: Antiproliferative activity against human HT29 cells assessed as reduction in cell viability incubated for 48 hr by MTT assay; format: functional, cell-based; settings: HT-29, 48 h
# DU-145 [7] = assay: Induction of cell cycle arrest in human DU-145 cells assessed as effect on Cdc2 expression by Western blot analysis; format: functional, cell-based
# HCT-116 [8] = assay: Induction of cell cycle arrest in human HCT-116 cells assessed as reduction in CDK6 expression by Western blot analysis; format: functional, cell-based
# HCT-116 [9] = assay: Induction of cell cycle arrest in human HCT-116 cells assessed as accumulation at sub-G1 phase at IC50 incubated for 48 hrs by RNaeA/propidium iodide based flow cytometry analysis (reference value: 0.67 %); format: functional
# HT-29 [10] = assay: Induction of cell cycle arrest at G1 phase in human HT-29 cells assessed as reduction in CDK2 expression by Western blot analysis; format: functional, cell-based
# DU-145 [11] = assay: Induction of cell cycle arrest in human DU-145 cells assessed as accumulation at G2 phase at IC50 incubated for 48 hrs by […]/propidium iodide based flow cytometry analysis (reference value: 16.06 %); format: functional
# HCT-116 [12] = assay: Induction of cell cycle arrest in human HCT-116 cells assessed as accumulation at S phase at IC50 incubated for 48 hrs by RNaeA/propidium iodide based flow cytometry analysis (reference value: 30.68 %); format: functional
# DU-145 [13] = assay: Induction of cell cycle arrest in human DU-145 cells assessed as effect on cyclin A2 expression by Western blot analysis; format: functional, cell-based
# PC-3 [14] = assay: Induction of apoptosis in human PC-3 cells assessed as viable cells incubated for 48 hrs by annexin-V/FITC and propidium iodide staining based flow cytometry analysis (reference value: 92.95 %); format: functional
# HT-29 [15] = assay: Induction of cell cycle arrest at G1 phase in human HT-29 cells assessed as reduction in CDK4 expression by Western blot analysis; format: functional, cell-based
# DU-145 [16] = assay: Induction of cell cycle arrest in human DU-145 cells assessed as accumulation at G1 phase at IC50 incubated for 48 hrs by […]/propidium iodide based flow cytometry analysis (reference value: 45.5 %); format: functional
# DU-145 [17] = assay: Induction of apoptosis in human DU-145 cells assessed as decrease in pro-caspase-3 expression by Western blot assay; format: functional, cell-based
# DU-145 [18] = assay: Antiproliferative activity against human DU145 cells assessed as reduction in cell viability incubated for 48 hr by MTT assay; format: functional, cell-based; settings: DU-145, 48 h
# HT-29 [19] = assay: Induction of cell cycle arrest in human HT-29 cells assessed as accumulation at sub-G1 phase at IC50 incubated for 48 hrs by RNaeA/propidium iodide based flow cytometry analysis (reference value: 0.12 %); format: functional
# DU-145 [20] = assay: Induction of apoptosis in human DU-145 cells assessed as late apoptotic cells incubated for 48 hrs by annexin-V/FITC and propidium iodide staining based flow cytometry analysis (reference value: 2.56 %); format: functional
# DU-145 [21] = assay: Induction of cell cycle arrest in human DU-145 cells assessed as effect on cyclin B1 expression by Western blot analysis; format: functional, cell-based
# DU-145 [22] = assay: Induction of apoptosis in human DU-145 cells assessed as decrease in PARP protein expression by Western blot assay; format: functional, cell-based
# HCT-116 [23] = assay: Antiproliferative activity against human HCT116 cells assessed as reduction in cell viability incubated for 48 hr by MTT assay; format: functional, cell-based; settings: HCT-116, 48 h
# HT-29 [24] = assay: Induction of apoptosis in human HT-29 cells assessed as late apoptotic cells incubated for 48 hrs by annexin-V/FITC and propidium iodide staining based flow cytometry analysis (reference value: 9.52%); format: functional
# DU-145 [25] = assay: Induction of cell cycle arrest in human DU-145 cells assessed as accumulation at S phase at IC50 incubated for 48 hrs by RNaeA/propidium iodide based flow cytometry analysis (reference value: 38.44 %); format: functional
# HCT-116 [26] = assay: Induction of apoptosis in human HCT-116 cells assessed as decrease in PARP protein expression by Western blot assay; format: functional, cell-based
# DU-145 [27] = assay: Induction of apoptosis in human DU-145 cells assessed as viable cells incubated for 48 hrs by annexin-V/FITC and propidium iodide staining based flow cytometry analysis (reference value: 94.13 %); format: functional
# PC-3 [28] = assay: Induction of apoptosis in human PC-3 cells assessed as increase in caspase-3 level by Western blot assay; format: functional, cell-based
# PC-3 [29] = assay: Induction of apoptosis in human PC-3 cells assessed as early apoptotic cells incubated for 48 hrs by annexin-V/FITC and propidium iodide staining based flow cytometry analysis (reference value: 4.38 %); format: functional
# HCT-116 [30] = assay: Induction of apoptosis in human HCT-116 cells assessed as early apoptotic cells incubated for 48 hrs by annexin-V/FITC and propidium iodide staining based flow cytometry analysis (reference value: 5.21 %); format: functional
# HT-29 [31] = assay: Induction of apoptosis in human HT-29 cells assessed as increase in caspase-3 level by Western blot assay; format: functional, cell-based
# HT-29 [32] = assay: Induction of cell cycle arrest at G1 phase in human HT-29 cells assessed as reduction in CDK6 expression by Western blot analysis; format: functional, cell-based
structure (smiles),measurement,setting,value
COc1cc(C(=O)/C=C/c2ccc(OCCCNCCCNCCCCN)cc2)cc(OC)c1OC,Activity,PC-3 [1],Active
same,Activity,HCT-116 [2],65.67%
same,Activity,PC-3 [3],26.99%
same,Activity,HT-29 [4],Active
same,Activity,DU-145 [5],52.25%
same,inhibition,Tubulin (Homo sapiens),inactive
same,pIC50,HT-29 [6],4.97
same,Activity,DU-145 [7],inactive
same,Activity,HCT-116 [8],Active
same,Activity,HCT-116 [9],24.17%
same,Activity,HT-29 [10],Active
same,Activity,DU-145 [11],34.55%
same,Activity,HCT-116 [12],14.4%
same,Activity,DU-145 [13],inactive
same,Activity,PC-3 [14],50.47%
same,Activity,HT-29 [15],Active
same,Activity,DU-145 [16],28.11%
same,Activity,DU-145 [17],Active
same,pIC50,DU-145 [18],5.05
same,Activity,HT-29 [19],7.07%
same,Activity,DU-145 [20],8.74%
same,Activity,DU-145 [21],inactive
same,Activity,DU-145 [22],Active
same,pIC50,HCT-116 [23],5.09
same,Activity,HT-29 [24],31.39%
same,Activity,DU-145 [25],37.34%
same,Activity,HCT-116 [26],Active
same,Activity,DU-145 [27],38.96%
same,Activity,PC-3 [28],Active
same,Activity,PC-3 [29],34.25%
same,Activity,HCT-116 [30],22.92%
same,Activity,HT-29 [31],Active
same,Activity,HT-29 [32],Active
